Among the test systems are OVCAR-8; NCI-H522; SW-620; SNB-19; 786-0; LOX IMVI; SF-295; K562; UACC-257; MDA-MB-435; DU-145; SK-OV-3; SNB-75; SF-539; COLO 205; UACC-62; Hs-578T; MCF7; Malme-3M; EKVX.
Test in all cases: growth of human tumour cells (NCI), 48 h

Each structure is given as a SMILES string.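 Protocol summary: plate cells (96-well), add compound at 5 concentrations, incubate 48 h, interpolate endpoints linearly. GI50 marks 50% less growth.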 Active and inactive are the calls of the source. Rule as the data show it: active = GI50 up to about 1.1 µM and inactive = higher. Where a SMILES comes first, the peptide text is derived from it. The star is where a group is joined. X33 = O=C(c1ccc(-c2ccc(Cl)cc2Cl)o1)* Some results are limits rather than exact numbers.

As for `CCC(C)C(NC(=O)CNC(=O)C(Cc1ccccc1)NC(=O)C1CCCN1C(=O)c1ccc(-c2ccc(Cl)cc2Cl)o1)C(=O)OC` (stereo not drawn) (X33-PFGI-OMe; configuration not given here), the GI50 in the assay with OVCAR-8 is 27.4 µM (inactive); with NCI-H522 it was 29.8 µM (inactive); with SW-620, 23 µM (inactive); in the assay with SNB-19, 48.1 µM (inactive); with 786-0, 27.1 µM (inactive); in the assay on LOX IMVI it was 33.3 µM (inactive). For the same compound, the GI50 in the assay on SF-295 is 22 µM (inactive); with K562, 22 µM (inactive); with UACC-257 it was 16.8 µM (inactive); with MDA-MB-435 it was 38.9 µM (inactive); in the assay on DU-145 it was 39.5 µM (inactive); in the assay on SK-OV-3, 89.5 µM (inactive). The GI50 with SNB-75 is 23.6 µM (inactive); in the assay on SF-539, 27.2 µM (inactive); in the assay on COLO 205, 31.6 µM (inactive); in the assay on UACC-62, 25.2 µM (inactive); with Hs-578T, 50.2 µM (inactive); in the assay with MCF7, 20.8 µM (inactive). The GI50 in the assay on Malme-3M was 53.7 µM (inactive); in the assay with EKVX, 24.1 µM (inactive).

For the compound `O=C(NC1=C(Cl)C(=O)c2ccccc2C1=O)C(=O)c1c(O)c2ccccc2oc1=O`, the GI50 in the assay on OVCAR-8 is 3.44 µM (inactive); with NCI-H522, 3.69 µM (inactive); in the assay on SW-620, 5.22 µM (inactive); in the assay on SNB-19 it was 4.6 µM (inactive); with 786-0, 6.24 µM (inactive); with LOX IMVI it was 2 µM (inactive). The GI50 was 2.46 µM (inactive) in the assay on SF-295; 5.15 µM (inactive) in the assay with K562; 1.51 µM (inactive) in the assay on UACC-257; 1.39 µM (inactive) in the assay with MDA-MB-435; 1.49 µM (inactive) in the assay on DU-145; 12.6 µM (inactive) in the assay on SK-OV-3. Moreover, the GI50 is 5.14 µM (inactive) in the assay on SNB-75; 2.8 µM (inactive) in the assay on SF-539; 5.87 µM (inactive) with COLO 205; 2.3 µM (inactive) in the assay with UACC-62; 5.2 µM (inactive) in the assay on Hs-578T; 1.62 µM (inactive) with MCF7. In addition, the GI50 in the assay with Malme-3M is 1.07 µM (active); in the assay on EKVX, 9.42 µM (inactive).

Regarding `Brc1ccc(/N=N/c2ccc3ccccc3n2)cc1`, the GI50 in the assay on OVCAR-8 is 30.3 µM (inactive); in the assay on NCI-H522 it was 0.0372 µM (active); in the assay on SW-620 it was 82.6 µM (inactive); in the assay with SNB-19, 15.9 µM (inactive); with 786-0 it was 14.2 µM (inactive); in the assay on SF-295, 24.8 µM (inactive). For the same compound, the GI50 is 82.8 µM (inactive) with UACC-257; 64.3 µM (inactive) in the assay on MDA-MB-435; > 100 µM (inactive) in the assay with DU-145; 22.9 µM (inactive) in the assay on SK-OV-3; 14.2 µM (inactive) in the assay with SNB-75; 22.2 µM (inactive) in the assay with SF-539. The GI50 with COLO 205 was > 100 µM (inactive); in the assay with UACC-62 it was 15.6 µM (inactive); with Hs-578T, 18 µM (inactive); in the assay with MCF7, 25.6 µM (inactive); in the assay with Malme-3M, 12.8 µM (inactive); in the assay with EKVX, 17.6 µM (inactive).

Consider `COc1ccc(/C=C/C(=O)N[C@@H]2C(=O)N3[C@@H]2SC(C)(C)[C@@H]3C(=O)O)cc1`, for which the GI50 in the assay with OVCAR-8 is > 100 µM (inactive); in the assay with NCI-H522, 69.2 µM (inactive); in the assay with SW-620, > 100 µM (inactive); in the assay with SNB-19, > 100 µM (inactive); in the assay on 786-0, > 100 µM (inactive); in the assay on LOX IMVI it was > 100 µM (inactive). In addition, the GI50 with SF-295, with K562, with UACC-257, in the assay with MDA-MB-435, in the assay on DU-145 and in the assay on SK-OV-3 was > 100 µM (inactive) throughout. In addition, the GI50 in the assay on SNB-75, with SF-539, in the assay with COLO 205, in the assay on UACC-62, in the assay on Hs-578T and in the assay on MCF7 was > 100 µM (inactive) in each case. In addition, the GI50 with EKVX is > 100 µM (inactive).

For the compound `CCC1CCC2c3c([nH]c4ccc(C)cc34)C3C(=O)N(N(C)C)C(=O)C3C2C1` (stereo not drawn), the GI50 in the assay on OVCAR-8 was 22.2 µM (inactive); with NCI-H522, 0.748 µM (active); with SW-620 it was 13.8 µM (inactive); in the assay on SNB-19 it was 16.9 µM (inactive); in the assay with 786-0, 7.24 µM (inactive); in the assay on LOX IMVI, 13.7 µM (inactive). The GI50 is 5.11 µM (inactive) with SF-295; 2.62 µM (inactive) in the assay on K562; 5.64 µM (inactive) with UACC-257; 1.37 µM (inactive) in the assay with MDA-MB-435; 29.9 µM (inactive) with DU-145; > 100 µM (inactive) in the assay on SK-OV-3. The GI50 with SF-539 was 18.2 µM (inactive); in the assay on COLO 205 it was 4.36 µM (inactive); in the assay on UACC-62 it was 17.6 µM (inactive); in the assay on Hs-578T, 4.91 µM (inactive); in the assay with MCF7, 3.64 µM (inactive); in the assay with Malme-3M, 1.02 µM (active). Besides, in the assay on EKVX, the GI50 is 26.7 µM (inactive).

For the compound `CN(C)CCCN1c2ccccc2CCc2ccc([N+](=O)[O-])cc21`, the GI50 was 29.6 µM (inactive) in the assay on OVCAR-8; 17.5 µM (inactive) in the assay with NCI-H522; 38.5 µM (inactive) in the assay on SW-620; 45.1 µM (inactive) in the assay on SNB-19; 33 µM (inactive) with 786-0; 16.1 µM (inactive) in the assay on LOX IMVI. Moreover, the GI50 in the assay on SF-295 was 17.9 µM (inactive); with K562, 30.3 µM (inactive); in the assay on UACC-257, 16.3 µM (inactive); in the assay with MDA-MB-435, 17.9 µM (inactive); with DU-145, 18.4 µM (inactive); in the assay on SK-OV-3, 37.2 µM (inactive). The GI50 with COLO 205 is 13.6 µM (inactive); with UACC-62, 16.1 µM (inactive); in the assay on Hs-578T, > 100 µM (inactive); in the assay with MCF7 it was 17.7 µM (inactive); in the assay on Malme-3M it was 19.5 µM (inactive); in the assay on EKVX, 69.3 µM (inactive).

As to `COc1ccc(C2c3cc4c(c(OC)c3CC3OCC(=O)C32)OCO4)cc1OC` (stereo not drawn), the GI50 in the assay on OVCAR-8 is 0.0601 µM (active); in the assay with NCI-H522, < 0.01 µM (active); in the assay with SW-620, 0.0366 µM (active); with SNB-19, 0.0538 µM (active); with 786-0 it was 0.0348 µM (active); in the assay with LOX IMVI, 0.0518 µM (active). Also, the GI50 in the assay on SF-295 is 0.0307 µM (active); in the assay on K562, 0.0504 µM (active); in the assay with MDA-MB-435 it was 0.0146 µM (active); with DU-145, 0.0218 µM (active); with SK-OV-3 it was 0.0405 µM (active); in the assay on SF-539, 0.0246 µM (active). In addition, the GI50 is 0.0267 µM (active) with COLO 205; 0.0531 µM (active) with UACC-62; < 0.01 µM (active) with Hs-578T; 0.0575 µM (active) with MCF7; 0.0605 µM (active) with EKVX.

`COc1cc2c(cc1OC)C(N)CC2=O` (stereo not drawn): the GI50 with OVCAR-8, in the assay on NCI-H522, in the assay with SW-620, with SNB-19, with 786-0 and in the assay on LOX IMVI was > 100 µM (inactive) throughout. Also, the GI50 in the assay on SF-295, in the assay on K562, in the assay on UACC-257, with MDA-MB-435, in the assay with DU-145 and in the assay with SK-OV-3 was > 100 µM (inactive) throughout. For the same compound, the GI50 in the assay with SNB-75, in the assay with SF-539, in the assay on COLO 205, in the assay with UACC-62, in the assay with Hs-578T and in the assay with MCF7 was > 100 µM (inactive) in each case. In addition, the GI50 in the assay on EKVX was > 100 µM (inactive).

`CCCCCCCCCC(=O)OCC1(CO)C/C(=C/CC(C(C)C)C(C)C)C(=O)O1` (stereo not drawn): the GI50 in the assay on OVCAR-8 is 47.1 µM (inactive); in the assay with NCI-H522 it was 19.4 µM (inactive); with SW-620, 26.9 µM (inactive); in the assay with SNB-19, 32.6 µM (inactive); in the assay on 786-0, 35.7 µM (inactive); in the assay with LOX IMVI, 21.6 µM (inactive). For the same compound, the GI50 with SF-295 was 42.4 µM (inactive); with K562, 18.3 µM (inactive); in the assay on UACC-257 it was > 100 µM (inactive); in the assay on MDA-MB-435, 31.6 µM (inactive); in the assay on DU-145 it was 71 µM (inactive); in the assay on SK-OV-3, > 100 µM (inactive). Further, the GI50 in the assay on SNB-75 is 78 µM (inactive); with COLO 205, 9.18 µM (inactive); in the assay with UACC-62, 49.2 µM (inactive); in the assay with Hs-578T, 27 µM (inactive); in the assay with MCF7, 59 µM (inactive); with Malme-3M, 23 µM (inactive). Further, the GI50 with EKVX is 70.1 µM (inactive).

As for `c1ccc(C/C(=N\Nc2nc3ccccc3o2)c2ccccn2)cc1`, the GI50 in the assay on OVCAR-8 was 0.0321 µM (active); in the assay on NCI-H522 it was 0.191 µM (active); in the assay with SW-620, < 0.013 µM (active); in the assay on SNB-19 it was 0.2 µM (active); in the assay on 786-0, < 0.0193 µM (active); in the assay on LOX IMVI it was 0.185 µM (active). Moreover, the GI50 in the assay with SF-295 is 0.234 µM (active); in the assay on K562, 0.027 µM (active); with UACC-257 it was 0.0775 µM (active); in the assay on MDA-MB-435 it was 0.638 µM (active); in the assay with DU-145 it was 0.376 µM (active); in the assay on SK-OV-3, 0.0237 µM (active). For the same compound, the GI50 in the assay on SF-539 is 0.114 µM (active); in the assay on COLO 205, < 0.01 µM (active); in the assay on UACC-62, 0.387 µM (active); with Hs-578T, 0.569 µM (active); in the assay on MCF7, < 0.01 µM (active); in the assay on Malme-3M it was 0.0233 µM (active). The GI50 in the assay with EKVX is < 0.01 µM (active).

(Values after ChEMBL document CHEMBL1201862, “PubChem BioAssay data set” (2004).)
